Assay results: patent publication US20050176758A1, “NOVEL COMPOUNDS AND METHODS FOR SYNTHESIS AND THERAPY” (priority 1995, published 2005)

What was measured:
[1] = Water solubility of salt form; type: physicochemical; settings: HCl salt form (dissolved in 3N HCl and lyophilized)
Experimental: Amino ethyl ester 262: Triphenyl phosphine (342 mg, 1.30 mmol) was added in one portion to a solution of 261 ([…], 0.80 mmol) in THF (17 mL) and water (1.6 mL). The reaction was then heated at 50° C. for 10 h, cooled and concentrated in vacuo to give a pale white solid. Purification of the crude solid by flash chromatography on silica gel (50% methanol in ethyl acetate) gave 242 mg (96%) of the amino ethyl ester 262 as a pale solid. The amino ethyl ester is dissolved in 3N HCl and lyophilized to give the corresponding water soluble HCl salt form. ^1H NMR (D2O, 300 MHz): δ 6.84 (s, 1H); 4.36-4.30 (br m, 1H); 4.24 (q, 2H, J=7.2 Hz); 4.05 (dd, 1H, J=9.0, 11.7 Hz); 3.63-3.50 (m, 2H); 2.95 (dd, 1H, J=5.7, 17.1 Hz); 2.57-2.45 (m, 1H); 1.60-1.39 (m, 4H); 1.27 (t, 3H, J=7.2 Hz); 0.89-0.80 (m, 6H).

[2] = molecular target: neuraminidase (Influenza A virus, UniProt P03468)
Chain of neuraminidase (P03468 whole entry): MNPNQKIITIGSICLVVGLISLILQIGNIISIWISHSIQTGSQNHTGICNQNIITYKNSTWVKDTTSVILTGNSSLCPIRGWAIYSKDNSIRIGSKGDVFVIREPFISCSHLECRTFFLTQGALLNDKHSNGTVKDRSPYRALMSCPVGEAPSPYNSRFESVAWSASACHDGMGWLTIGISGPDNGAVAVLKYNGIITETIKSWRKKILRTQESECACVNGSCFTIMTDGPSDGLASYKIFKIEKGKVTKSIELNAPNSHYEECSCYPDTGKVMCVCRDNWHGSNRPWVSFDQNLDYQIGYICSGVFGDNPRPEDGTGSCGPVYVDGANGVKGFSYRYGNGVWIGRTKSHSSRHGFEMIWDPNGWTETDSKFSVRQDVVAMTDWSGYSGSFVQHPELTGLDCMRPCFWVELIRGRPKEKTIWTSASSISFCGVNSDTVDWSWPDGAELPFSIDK

[3] = literature reports; cited from earlier work

SMILES	IC50 [2] [nM]	further results
CCOC(=O)C1=CC(OC(CC)CC)C(NC(C)=O)C(N)C1 (stereo not shown) [compound 262]		Water solubility [1]: water soluble
CC(=O)N[C@@H]1[C@@H](N)CC(C(=O)O)=C[C@H]1OCC(O)CO (stereo partly shown) [compound 8]	1000 to 10000	
CC(=O)NC1C(O)C=C(C(=O)O)CC1NC(=N)N (stereo not shown) [compound 94]	< 1000	
CC(=O)N[C@H]1[C@H]([C@H](O)[C@H](O)CO)OC(C(=O)O)=C[C@@H]1N=C(N)N [GG167, 4-guanidino-2,4-dideoxy-2,3-dehydro-N-acetylneuraminic acid]		Toxicity [3]: nontoxic
